Assay results reported in patent EP0147498A2, “Method of testing chemical and biological substances” (Thorn, Werner Prof. Dr., priority 1983, dated 1985).

Assays:
[1] = system: Syncytiotrophoblasten der Placenta; details: cited from earlier work; for PP-Bildung in Meerschweinchenplacenten: animal experiments, Archiv für Gynäkologie 216 (1974) and 221 (1976); for Auftreten von Plasmapolypen am Syncytiotrophoblasten der Placenta: poisoning of pregnant guinea pigs, within a few minutes, already known
Magenschleimhaut = experiment: Plasma polyp (PP) formation at the gastric mucosa after application by stomach tube, PP isolated by reverse centrifugation and counted by phase-contrast microscopy; details: for Anzahl der PP pro 1 g Rattenmagen: stomach tube, about 20-30 min
Description: Die PP-Bildung, deren Konzentration und Auszählung wurden an Gruppen zu je 5 Ratten von 140 bis 160 g Körpergewicht, im Mittel 150 g, kontrolliert und die Anzahl der PP auf 1 g Magen (Leergewicht) umgerechnet. Die Tiere waren vor dem Versuch 15 bis 17 Stunden nahrungsfrei. Die Applikation der Testsubstanzen, die gelöst sind in Krebs-Ringer-Lösung (KRL) oder Aq.bidest, erfolgte per Schlundsonde. Die verabreichte Lösung besitzt einen pH-Wert von 7,0 bis 7,2. Die Verweildauer des applizierten Volumens hängt zum Teil ab von den Eigenschaften der Testsubstanz. […] Die Verweildauer der Testsubstanz bis zur Entnahme der Mägen einer Gruppe betrug etwa 20 bis maximal 30 min. Dabei werden dosisabhängig die abgeschnürten PP erfaßt.
Es wurden 5 Tierversuche - zu einer Serie zusammengefaßt - durchgeführt innerhalb von 40 min, wobei die Mägen wie folgt aufgearbeitet wurden: • 1. Jeder Ratte werden in nicht narkotisiertem Zustand 4,5 ml der Lösung bestehend aus der in KRL oder Aq.bidest gelösten Testsubstanz mittels einer Schlundsonde appliziert. • 2. Nach einer Einwirkzeit von etwa 15 bis 20 min werden 40 bis 45 mg Nembutal intraperitoneal appliziert, 2 bis 3 min zugewartet und dann der Magen während eines Zeitraums von etwa 5 min entnommen. • 3. Der Magen wird aufgeschnitten, der Inhalt aufgefangen, auf PP geprüft und der leere Magen in. oxygenierte KRL-Lösung mit Glucosezusatz geworfen. • 4. Alle 5 Mägen werden in der glucosehaltigen KRL dreimal hochtourig homogenisiert, das Homogenisat über ein feinmaschiges Sieb gegossen, und das Sieb wird mit 20 ml KRL nachgespült, so daß ein Endvolumen von 80 ml vorliegt. • 5. Die Volumina aus den Stufen 3 und 4 werden mit 8 ml eine: 7 %iger Lösung aus einem Copolymeren der Saccharose mit Epichlorhydrin unterschichtet und bei 2000 Umdrehungen/min im Schwingbecherrotor für 20 min zentrifugiert. • 6. Die die PP enthaltende Schicht wird erneut 60 min im Festwinkelrotor bei 13000 Umdrehungen/min (Ultrazentrifuge) zentrifugiert, der Uberstand wird verworfen und das Sediment weiterverarbeitet. • 7 Das Sediment wird einer umgekehrten Zentrifugation in der Ultrazentrifuge bei 25000 U/min für 45 min unterzogen. • 8. Die in einer Bohrung aufgefangenen PP aus der umgekehrten Zentrifugation werden in 50 µl KRL aufgenommen. • 9. Zur Auszählung der PP aus Stufe 8 bei einem Ansatz von jeweils 3 µl dient ein Phasenkontrastmikroskop. Es werden 10 Felder mit dem Rasterobjektiv ausgezählt, zum Teil unter fotografischer Kontrolle. Die in der nachfolgenden Tabelle aufgeführten Werte stammen jeweils aus drei Ansätzen; einer Probe von 5 Rattenmägen oder aus der Auswertung von 30 Feldern. • 10. Mittelwert pro Feld x Umrechnungsfaktor pro Feld x 16,6 ergibt die Zahl der PP pro Gramm Magen. Der Umrechnungsfaktor für die Feldfläche von 18 x 18 mm^2 ist 24,652.
Es wurden die in der folgenden Tabelle angegebenen Substanzen injiziert und dann die Anzahl der PP aus einer Serie von 5 Tieren als Mittelwert pro Gramm Rattenmagen oder gemittelt aus mehreren Serien mit jeweils 5 Tieren ermittelt.

O=[N+]([O-])c1ccc(O)c([N+](=O)[O-])c1 [2.4-Dinitrophenol]
PP-Bildung in Meerschweinchenplacenten [1]: keiner vermehrten PP-Bildung

CC(=O)Oc1ccccc1C(=O)O [ASS, Acetylsalicylsäure]
Anzahl der PP pro 1 g Rattenmagen (Magenschleimhaut; 0,5 mmol ASS in 4,5 ml Aq.bidest, mean of 3 series of 5 rats): 728.000 PP pro 1 g Rattenmagen | Anzahl der PP pro 1 g Rattenmagen (Magenschleimhaut; 0,25 mmol ASS in 4,5 ml Aq.bidest, mean of 3 series of 5 rats): 610.700 PP pro 1 g Rattenmagen

O=C(O)CI [Monojodacetat]
PP-Bildung in Meerschweinchenplacenten [1]: verstärkte, reproduzierbare Bildung und Abschnürung von Zellprotrusionen | Auftreten von Plasmapolypen am Syncytiotrophoblasten der Placenta [1]: in großer Zahl

CC(O)C(=O)O (centres unmarked) [Na-Lactat]
Anzahl der PP pro 1 g Rattenmagen (Magenschleimhaut; 2,0 mmol Na-Lactat in 4,5 ml Aq.bidest, mean of 4 series of 5 rats): 344.000 PP pro 1 g Rattenmagen

CC(=O)C(=O)O [Na-Pyruvat, Natriumpyruvat]
Anzahl der PP pro 1 g Rattenmagen (Magenschleimhaut; 0,5 mmol Na-Pyruvat in 4,5 ml Aq.bidest, 1 series of 5 rats): etwa 220.000 PP pro 1 g Rattenmagen | PP-Zahlen gegenüber der Blindprobe (4,5 ml Aq.bidest) (Magenschleimhaut; Na-Pyruvat alone, compared with the blank): keine Erhöhung

O=C(O)O [NaHCO3]
Anzahl der PP pro 1 g Rattenmagen (Magenschleimhaut; 1,33 mmol NaHCO3 in 4,5 ml Aq.bidest, mean of 4 series of 5 rats): 333.700 PP pro 1 g Rattenmagen

[F-].[Na+] [Natriumfluorid]
PP-Bildung in Meerschweinchenplacenten [1]: verstärkte, reproduzierbare Bildung und Abschnürung von Zellprotrusionen | Auftreten von Plasmapolypen am Syncytiotrophoblasten der Placenta [1]: in großer Zahl
